Test: Tolerability of mono-ethanolamine on humans
Assay type: in vivo
Settings: when used in higher concentrations

NCCO [mono-ethanolamine, 2-aminoethanol]
irritation of eyes and mucus membranes: irritating to the eyes and mucus membranes

Reference: US6599941B1, “Insecticide and insect repellant compositions” (priority 1993, dated 2003)
